A word on the Km: it is the substrate concentration at which the rate is half of its maximum.

Holding throughout (assay type): functional, cell-based
The target of data set [1] is T1, Ileal sodium/bile acid cotransporter (Rattus norvegicus, UniProt Q62633).
T1 sequence (Q62633 whole entry): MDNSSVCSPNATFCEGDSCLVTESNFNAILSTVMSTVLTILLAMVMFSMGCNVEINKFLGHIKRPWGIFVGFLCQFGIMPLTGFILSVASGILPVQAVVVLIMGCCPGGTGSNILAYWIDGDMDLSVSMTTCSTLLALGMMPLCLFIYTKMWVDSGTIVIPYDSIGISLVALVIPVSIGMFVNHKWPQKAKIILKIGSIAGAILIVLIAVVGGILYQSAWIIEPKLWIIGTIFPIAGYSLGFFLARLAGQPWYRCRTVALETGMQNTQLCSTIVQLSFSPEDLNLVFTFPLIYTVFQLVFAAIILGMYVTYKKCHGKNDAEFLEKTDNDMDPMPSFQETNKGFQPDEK
As to the kind of experiment: TP_TRANSPORTER: uptake in ASBT-expressing COS cells. As to conditions: monkey.

Data set [2] addresses T2, Solute carrier organic anion transporter family member 1A5 (Rattus norvegicus, UniProt O88397).
T2 sequence (O88397 whole entry): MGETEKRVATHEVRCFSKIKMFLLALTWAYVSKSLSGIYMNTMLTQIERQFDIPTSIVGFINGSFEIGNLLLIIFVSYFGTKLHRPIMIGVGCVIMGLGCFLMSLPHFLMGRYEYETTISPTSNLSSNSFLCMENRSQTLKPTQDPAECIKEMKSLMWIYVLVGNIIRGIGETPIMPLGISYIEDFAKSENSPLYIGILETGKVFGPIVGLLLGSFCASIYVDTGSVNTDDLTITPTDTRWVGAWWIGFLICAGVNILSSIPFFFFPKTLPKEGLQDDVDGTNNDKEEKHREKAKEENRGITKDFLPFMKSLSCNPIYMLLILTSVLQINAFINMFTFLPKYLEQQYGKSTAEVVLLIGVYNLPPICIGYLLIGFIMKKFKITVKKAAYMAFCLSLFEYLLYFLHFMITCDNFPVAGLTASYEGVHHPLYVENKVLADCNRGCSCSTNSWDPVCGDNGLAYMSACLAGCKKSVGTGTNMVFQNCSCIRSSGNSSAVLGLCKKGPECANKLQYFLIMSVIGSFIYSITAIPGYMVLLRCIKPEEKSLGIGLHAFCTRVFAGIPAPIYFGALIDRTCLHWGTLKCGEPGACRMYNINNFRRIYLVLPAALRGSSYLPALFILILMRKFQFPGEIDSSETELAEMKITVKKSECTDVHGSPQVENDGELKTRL
Kind of data set: TP_TRANSPORTER: uptake in Oatp3-expressing COS cells. As to conditions: monkey.

Data set [3] addresses T2, Solute carrier organic anion transporter family member 1A5. Kind of data set: TP_TRANSPORTER: inhibition of Taurocholate uptake (Taurocholate: 10 uM, DIDS: 1000 uM) in Oatp3-expressing MDCK cells. Particulars: dog.
Substrate in data set [4]: C[C@H](CCC(=O)NCC(=O)O)[C@H]1CC[C@H]2[C@@H]3CC[C@@H]4C[C@H](O)CC[C@]4(C)[C@H]3C[C@H](O)[C@]12C
Kind of data set: (§1) TP_TRANSPORTER: uptake in Oatp3-expressing MDCK cells.

Substrate in data set [5]: C[C@H](CCC(=O)NCC(=O)O)[C@H]1CC[C@H]2[C@@H]3[C@@H](O)C[C@@H]4C[C@H](O)CC[C@]4(C)[C@H]3CC[C@]12C
The data set is described as §1.

Substrate in data set [6]: C[C@H](CCC(=O)NCC(=O)O)[C@H]1CC[C@H]2[C@@H]3[C@H](O)C[C@@H]4C[C@H](O)CC[C@]4(C)[C@H]3CC[C@]12C
The data set is described as §1.

Substrate in data set [7]: C[C@H](CCC(=O)NCC(=O)O)[C@H]1CC[C@H]2[C@@H]3[C@H](O)C[C@@H]4C[C@H](O)CC[C@]4(C)[C@H]3C[C@H](O)[C@]12C
The data set is described as §1.

Substrate in data set [8]: C[C@H](CCC(=O)NCCS(=O)(=O)O)[C@H]1CC[C@H]2[C@@H]3CC[C@@H]4C[C@H](O)CC[C@]4(C)[C@H]3C[C@H](O)[C@]12C
The data set is described as §1.

Substrate in data set [9]: C[C@H](CCC(=O)NCCS(=O)(=O)O)[C@H]1CC[C@H]2[C@@H]3[C@@H](O)C[C@@H]4C[C@H](O)CC[C@]4(C)[C@H]3CC[C@]12C
Described as §1.

Substrate in data set [10]: C[C@H](CCC(=O)NCCS(=O)(=O)O)[C@H]1CC[C@H]2[C@@H]3[C@H](O)C[C@@H]4C[C@H](O)CC[C@]4(C)[C@H]3CC[C@]12C
The data set is described as §1.

For `C[C@H](CCC(=O)NCC(=O)O)[C@H]1CC[C@H]2[C@@H]3CC[C@@H]4C[C@H](O)CC[C@]4(C)[C@H]3C[C@H](O)[C@]12C` [GLYCODEOXYCHOLATE], the Activity result in data set [1] and in data set [2] was “substrate [+]” in each case.
As to `O=S(=O)(O)c1cc(N=C=S)ccc1/C=C/c1ccc(NC=S)cc1S(=O)(=O)O`, the Activity entry in data set [3] is “inhibitor [(at a rough estimate) 15 % of control]”.
Regarding `C[C@H](CCC(=O)NCCS(=O)(=O)O)[C@H]1CC[C@H]2[C@@H]3CC[C@@H]4C[C@H](O)CC[C@]4(C)[C@H]3C[C@H](O)[C@]12C` [TAURODEOXYCHOLIC ACID], the Activity result in data set [1] and in data set [2] was “substrate [+]” in each case.
Take `C[C@H](CCC(=O)NCCS(=O)(=O)O)[C@H]1CC[C@H]2[C@@H]3[C@H](O)C[C@@H]4C[C@H](O)CC[C@]4(C)[C@H]3CC[C@]12C` [TAUROCHENODEOXYCHOLATE]: the Activity entry in [1] and in data set [2] was “substrate [+]” throughout.
Turning to `C[C@H](CCC(=O)NCC(=O)O)[C@H]1CC[C@H]2[C@@H]3[C@H](O)C[C@@H]4C[C@H](O)CC[C@]4(C)[C@H]3C[C@H](O)[C@]12C` [GLYCOCHOLIC ACID], the Activity entry in data set [1] and in [2] was “substrate [+]” in each case.
As to `C[C@H](CCC(=O)NCC(=O)O)[C@H]1CC[C@H]2[C@@H]3[C@@H](O)C[C@@H]4C[C@H](O)CC[C@]4(C)[C@H]3CC[C@]12C` [GLYCOURSODEOXYCHOLIC ACID], the Activity result in data set [1] and in data set [2] was “substrate [+]” each time.
Take `C[C@H](CCC(=O)NCCS(=O)(=O)O)[C@H]1CC[C@H]2[C@@H]3[C@@H](O)C[C@@H]4C[C@H](O)CC[C@]4(C)[C@H]3CC[C@]12C` [TAURURSODIOL]: the Activity entry in data set [1] and in data set [2] was “substrate [+]” throughout.
Consider `C[C@H](CCC(=O)NCC(=O)O)[C@H]1CC[C@H]2[C@@H]3[C@H](O)C[C@@H]4C[C@H](O)CC[C@]4(C)[C@H]3CC[C@]12C` [GLYCOCHENODEOXYCHOLATE], for which the Activity entry in data set [1] and in data set [2] was “substrate [+]” throughout.

B1: Solute carrier organic anion transporter family member 1A5 (Rattus norvegicus) (protein)
chain: MGETEKRVATHEVRCFSKIKMFLLALTWAYVSKSLSGIYMNTMLTQIERQFDIPTSIVGFINGSFEIGNLLLIIFVSYFGTKLHRPIMIGVGCVIMGLGCFLMSLPHFLMGRYEYETTISPTSNLSSNSFLCMENRSQTLKPTQDPAECIKEMKSLMWIYVLVGNIIRGIGETPIMPLGISYIEDFAKSENSPLYIGILETGKVFGPIVGLLLGSFCASIYVDTGSVNTDDLTITPTDTRWVGAWWIGFLICAGVNILSSIPFFFFPKTLPKEGLQDDVDGTNNDKEEKHREKAKEENRGITKDFLPFMKSLSCNPIYMLLILTSVLQINAFINMFTFLPKYLEQQYGKSTAEVVLLIGVYNLPPICIGYLLIGFIMKKFKITVKKAAYMAFCLSLFEYLLYFLHFMITCDNFPVAGLTASYEGVHHPLYVENKVLADCNRGCSCSTNSWDPVCGDNGLAYMSACLAGCKKSVGTGTNMVFQNCSCIRSSGNSSAVLGLCKKGPECANKLQYFLIMSVIGSFIYSITAIPGYMVLLRCIKPEEKSLGIGLHAFCTRVFAGIPAPIYFGALIDRTCLHWGTLKCGEPGACRMYNINNFRRIYLVLPAALRGSSYLPALFILILMRKFQFPGEIDSSETELAEMKITVKKSECTDVHGSPQVENDGELKTRL
For B1, the Km was determined as 4.3 µM in [4]; 5.3 µM in [5]; 5.6 µM in [6]; 15.4 µM in data set [7]; 5.8 µM in data set [8]; 6.6 µM in [9]. Besides, in data set [10], the Km came to 7 µM.

The record behind these values is ChEMBL document CHEMBL2074318, “Expression, transport properties, and chromosomal location of organic anion transporter subtype 3” (Am J Physiol Gastrointest Liver Physiol, 2000).
